Results published in ChEMBL document CHEMBL1857833, “Screening and optimization of specific chemical series against human African Trypanosomiasis (HAT)”.
In brackets after ≈: the same amount, converted by molar mass. Several values for one entry are separate records, joined by “and”; a condition that tells them apart may be missing. Equal entries are not always repeated.

What was measured:
[1] = target: T1, MDR1 (ABCB1) (Homo sapiens, UniProt P08183); assay: DNDI: Efflux ratio for permeability from basolateral to apical side to apical to basolateral side of MDCK cells transfected with human MDR1; format: ADME, cell-based, Canis lupus familiaris; conditions: dog, read-out: B-A/A-B
[2] = (§1) DNDI: Cytotoxicity against L929 mouse fibroblasts, CYTO-SP, 24 hour; format: toxicity, cell-based; conditions: mouse, L929 mouse fibroblasts
[3] = DNDI: Lipophilicity measured in Chromatographic hydrophobicity index (CHI) assay, pH 7.4; format: physicochemical; conditions: buffer
[4] = system: Trypanosoma brucei; assay: DNDI: Mean survival time in days (MSD) of mice after intraperitoneal injection of Human African Trypanosomiasis (HAT), EATRO 110, at 0.5 mg/kg/day for 4 days.; format: functional, Mus musculus
[5] = target: T1, MDR1 (ABCB1); assay: DNDI: % of compound recovered from apical to basolateral permeability assay in MDCK cells transfected with human MDR1; format: ADME, cell-based, Canis lupus familiaris; conditions: dog
[6] = system: Trypanosoma brucei; assay: DNDI: Mean survival time in days (MSD) of mice after intraperitoneal injection of Human African Trypanosomiasis (HAT), EATRO 110, in vivo at 12.5 mg/kg/day for 4 days.; format: functional, Mus musculus
[7] = system: Trypanosoma brucei; assay: DNDI: Inhibition of Human African Trypanosomiasis, EATRO 110, in vitro; format: functional, organism-based
[8] = target: T1, MDR1 (ABCB1); assay: DNDI: Apparent permeability from apical to basolateral side of the MDCK cell transfected with human MDR1; format: ADME, cell-based, Canis lupus familiaris; conditions: dog
[9] = DNDI: half life in mouse liver microsomes at a concentration of 10uM; format: ADME, Microsome
[10] = system: Trypanosoma brucei; assay: DNDI: Mean survival time in days (MSD) of mice after intraperitoneal injection of Human African Trypanosomiasis (HAT), EATRO 110, in vivo at 2.5 mg/kg/day for 4 days.; format: functional, Mus musculus
[11] = system: Trypanosoma brucei; assay: DNDI: Inhibition of Human African Trypanosomiasis, SBRI 427, in vitro; format: functional, organism-based
[12] = system: Trypanosoma brucei; assay: DNDI: Mean survival time in days (MSD) of mice after intraperitoneal injection of Human African Trypanosomiasis (HAT), EATRO 110, in vivo at 5 mg/kg/day for 4 days.; format: functional, Mus musculus
[13] = DNDI: Solubility in phosphate buffered saline at pH7.4 measured by optical density (turbidimetry) at room temperature (OD-RT); format: physicochemical; conditions: pH 7.4
[14] = DNDI: in vitro intrinsic clearance in mouse liver microsomes at a concentration of 10uM; format: ADME, Microsome; conditions: read-out: CLint in vitro
[15] = system: Trypanosoma brucei; assay: DNDI: Mean survival time in days (MSD) of mice after intraperitoneal injection of Human African Trypanosomiasis (HAT), EATRO 110, in vivo at 1.25 mg/kg/day for 4 days.; format: functional, Mus musculus
[16] = target: T1, MDR1 (ABCB1); assay: DNDI: Apparent permeability from basolateral to apical side of the MDCK cell transfected with human MDR1 after 60 mins at a concentration of 3uM; format: ADME, cell-based, Canis lupus familiaris; conditions: dog
[17] = system: Trypanosoma brucei; assay: (§2) DNDI: Mean survival time in days (MSD) of mice after intraperitoneal injection of Human African Trypanosomiasis (HAT), EATRO 110, in vivo at 20 mg/kg/day for 4 days.; format: functional, Mus musculus
[18] = target: T1, MDR1 (ABCB1); assay: DNDI: % of compound recovered from basolateral to apical permeability assay in MDCK cells transfected with human MDR1; format: ADME, cell-based, Canis lupus familiaris; conditions: dog
[19] = system: L929; assay: (§3) DNDI: Cytotoxicity against L929 mouse fibroblasts, 72 hour.; format: toxicity, cell-based; conditions: l929
[20] = as §3; format: toxicity, cell-based; conditions: mouse, L929 mouse fibroblasts
[21] = system: Trypanosoma brucei; assay: as §2; format: functional, Mus musculus; remark: listed apart in the source
[22] = system: Trypanosoma brucei; assay: DNDI: Inhibition of Human African Trypanosomiasis, Cross 22, in vitro; format: functional, organism-based
[23] = DNDI: Solubility in phosphate buffered saline at pH7.4 measured by nephelometry at room temperature (NEPH-RT); format: physicochemical; conditions: pH 7.4
[24] = system: Trypanosoma brucei rhodesiense; assay: DNDI: Inhibition of Human African Trypanosomiasis (HAT), STIB 900, in vitro; format: functional, organism-based
[25] = mouse, microsomes, 1 µM
Description: (§4) DNDI: in vitro intrinsic clearance in mouse liver microsomes at a concentration of 1uM

[26] = mouse, microsomes, 1 µM; remark: listed apart in the source
Description: (§5) DNDI: half life in mouse liver microsomes at a concentration of 1uM

[27] = in vitro; conditions: mouse, liver microsomes, t (1 / 2)
Description: as §5

[28] = in vitro; conditions: human, liver microsomes, CLint in vitro
Description: DNDI: in vitro intrinsic clearance in human liver microsomes at a concentration of 1uM

[29] = system: Leishmania donovani; assay: DNDI: Inhibition of formation of Leishmania donovani (strain MHOM/ET/67/L82) axenic amastigotes, in vitro.; format: functional, organism-based
[30] = system: Trypanosoma cruzi; assay: DNDI: Inhibition of Chagas Disease parasite Trypanosoma cruzi (Tulahuen LacZ, Clone C4), in vitro.; format: functional, organism-based
[31] = in vitro; conditions: mouse, liver microsomes
Description: as §4

[32] = in vitro; conditions: human, liver microsomes, t (1 / 2)
Description: DNDI: half life in human liver microsomes at a concentration of 1uM

[33] = DNDI: Cytotoxicity against L-6 rat myoblasts from skeletal muscle cells; format: toxicity, cell-based, L6; conditions: L-6 rat skeletal muscle myoblasts
[34] = system: Plasmodium falciparum; assay: DNDI: Inhibition of the malaria parasite Plasmodium falciparum, in vitro; format: functional, organism-based; conditions: K1
[35] = system: L929; assay: as §1; format: toxicity, cell-based; conditions: l929
[36] = DNDI: half life in human liver microsomes at a concentration of 10uM; format: ADME, Microsome
[37] = DNDI: in vitro intrinsic clearance in human liver microsomes at a concentration of 10uM; format: ADME, Microsome
[38] = DNDI: half-life in mouse S9 microsomes at a concentration of 10uM; format: ADME, subcellular, Liver, S9 fraction
[39] = DNDI: half-life in mouse S9 microsomes at a concentration of 1uM; format: ADME, subcellular, Liver, S9 fraction
[40] = Trypanosoma brucei, SBRI 427, read-out: IC50

T1 sequence (P08183 whole entry): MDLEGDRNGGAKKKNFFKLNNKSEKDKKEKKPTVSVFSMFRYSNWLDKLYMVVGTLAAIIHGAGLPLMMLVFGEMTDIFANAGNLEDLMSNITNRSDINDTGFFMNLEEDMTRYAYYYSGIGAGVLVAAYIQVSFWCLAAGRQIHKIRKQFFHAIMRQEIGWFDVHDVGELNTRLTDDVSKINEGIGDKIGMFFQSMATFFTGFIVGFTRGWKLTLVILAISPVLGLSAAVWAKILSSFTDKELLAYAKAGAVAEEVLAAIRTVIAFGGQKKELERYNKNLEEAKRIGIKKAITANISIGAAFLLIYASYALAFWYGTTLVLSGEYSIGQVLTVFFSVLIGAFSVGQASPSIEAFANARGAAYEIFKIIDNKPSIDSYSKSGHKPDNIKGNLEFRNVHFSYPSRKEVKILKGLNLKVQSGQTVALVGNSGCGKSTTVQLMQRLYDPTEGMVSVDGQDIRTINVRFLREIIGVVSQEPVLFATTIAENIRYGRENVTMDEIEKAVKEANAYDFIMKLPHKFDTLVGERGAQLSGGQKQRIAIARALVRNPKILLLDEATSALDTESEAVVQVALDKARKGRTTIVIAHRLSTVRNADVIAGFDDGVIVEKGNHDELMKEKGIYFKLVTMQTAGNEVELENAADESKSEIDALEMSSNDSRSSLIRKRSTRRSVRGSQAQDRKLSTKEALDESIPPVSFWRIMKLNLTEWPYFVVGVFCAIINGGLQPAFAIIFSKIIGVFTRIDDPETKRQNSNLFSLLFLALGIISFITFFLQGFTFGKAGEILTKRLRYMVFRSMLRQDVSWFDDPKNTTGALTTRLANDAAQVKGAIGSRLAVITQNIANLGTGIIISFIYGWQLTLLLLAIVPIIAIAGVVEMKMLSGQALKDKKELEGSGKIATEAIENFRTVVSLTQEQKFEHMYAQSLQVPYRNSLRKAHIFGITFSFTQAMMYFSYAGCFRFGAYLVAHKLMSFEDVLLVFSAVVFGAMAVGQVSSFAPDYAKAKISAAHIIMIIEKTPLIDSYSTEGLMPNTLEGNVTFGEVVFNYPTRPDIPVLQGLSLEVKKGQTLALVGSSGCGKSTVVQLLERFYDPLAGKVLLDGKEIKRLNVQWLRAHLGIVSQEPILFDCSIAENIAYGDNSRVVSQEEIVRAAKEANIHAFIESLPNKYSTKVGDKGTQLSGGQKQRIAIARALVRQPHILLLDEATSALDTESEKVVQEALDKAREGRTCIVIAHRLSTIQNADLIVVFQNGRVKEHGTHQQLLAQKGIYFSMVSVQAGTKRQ

| Compound | chromatographic logD [3] | IC50 [7] [µg/mL] | half-life at 10 µM [9] [h] | IC50 [11, 40] [µg/mL] | solubility kinetic [13] [µM] | microsomal CLint at 10 µM [14] [µL/min/mg] | IC50 [22] [µg/mL] | CLint in vitro [25] [µL/min/mg] | half-life at 1 µM [27] [h] | IC50 at 24 h [2] [µg/mL] | IC50 [19] [µg/mL] | IC50 at 72 h [20] [µg/mL] | further results |
| --- | --- | --- | --- | --- | --- | --- | --- | --- | --- | --- | --- | --- | --- |
| O/N=C(/NC1CCCCC1)c1cccnc1Oc1ccccc1Cl | 4.52 | 1.41 (≈ 4.08 µM) | 0.233 | 0.95 (≈ 2.75 µM) | 4 (≈ 1.38 µg/mL) | 211 |  |  |  | > 50 |  |  | efflux ratio [1]: 1.2; MSD [4]: 4 days; recovery [5]: 58%; MSD [6]: 4 days; Papp A→B [8]: 30.2 ×10⁻⁶ cm/s; MSD [10]: 4 days; MSD [12]: 4 days; MSD [15]: 4 days; Papp B→A at 1 h, 3 µM [16]: 34.8 ×10⁻⁶ cm/s; MSD [17]: 4 days; recovery [18]: 67% |
| CCCCc1ccc(-c2nc(CNC3CC(C)CC(C)(C)C3)co2)cc1 (centres undefined) | 5.99 |  |  |  |  |  | 0.34 (≈ 0.959 µM) | 3 | 3.2 | > 50 | 1.26 (≈ 3.55 µM) | 0.64 (≈ 1.81 µM) | MSD [21]: 4 days; solubility kinetic [23]: 6 µM (≈ 2.13 µg/mL); IC50 [24]: 0.348 µg/mL (≈ 0.982 µM); t (1 / 2) [26]: 251 min and 224 min; MSD [12]: 4 days; microsomal CLint at 1 µM [28]: 14 µL/min/mg; IC50 [29]: 5.26 µg/mL (≈ 14.8 µM); IC50 [30]: 2 µg/mL (≈ 5.64 µM); microsomal CLint at 1 µM [31]: 4 µL/min/mg; half-life at 1 µM [32]: 0.983 h; MSD [17]: 2.5 days; IC50 [33]: 1.73 µg/mL (≈ 4.88 µM); IC50 [34]: 0.521 µg/mL (≈ 1.47 µM) |
| CCCCCC(C)NCc1coc(-c2ccccc2OCC)n1 (centres undefined) |  |  |  |  |  |  |  |  |  | 27 (≈ 85.3 µM) |  | 7.79 (≈ 24.6 µM) | IC50 [35]: 38.6 µg/mL (≈ 122 µM) |
| Fc1ccc(-c2cc3nc(-c4ccccc4)cc(N4CCNCC4)n3n2)cc1 | 4.98 |  |  | 0.422 (≈ 1.13 µM) |  |  |  |  |  |  |  | 0.73 (≈ 1.95 µM) | solubility kinetic [23]: 3 µM (≈ 1.12 µg/mL); half-life at 10 µM [38]: 3.68 h; half-life at 1 µM [39]: 1.28 h |
| CCCCc1ccc(-c2nc(CNCC(C)(C)CN)co2)cc1 |  |  |  | 0.39 (≈ 1.24 µM) |  |  |  |  |  |  | 2.96 (≈ 9.38 µM) | 1.81 (≈ 5.74 µM) |  |

Second part, led by results:

| chromatographic logD [3] | IC50 [7] [µg/mL] | half-life at 10 µM [9] [h] | IC50 [11, 40] [µg/mL] | solubility kinetic [13] [µM] | microsomal CLint at 10 µM [14] [µL/min/mg] | IC50 [22] [µg/mL] | CLint in vitro [25] [µL/min/mg] | half-life at 1 µM [27] [h] | Compound | IC50 at 24 h [2] [µg/mL] | IC50 [19] [µg/mL] | IC50 at 72 h [20] [µg/mL] | further results |
| --- | --- | --- | --- | --- | --- | --- | --- | --- | --- | --- | --- | --- | --- |
|  |  |  | 0.6 (≈ 1.98 µM) |  |  |  |  |  | CCCCc1ccc(-c2nc(CNCC(O)CN)co2)cc1 (centres undefined) |  | 3.31 (≈ 10.9 µM) | 2.91 (≈ 9.59 µM) |  |
| 5.5 | 0.71 (≈ 2 µM) | 1.35 | 1.18 (≈ 3.33 µM) | 0.8 (≈ 0.284 µg/mL) | 35 | 1.57 (≈ 4.43 µM) | 86 | 0.167 | CCOc1ccc(-c2nc(CNC[C@@H]3CC[C@H]4C[C@@H]3C4(C)C)co2)cc1 | 45.2 (≈ 128 µM) |  | 3.26 (≈ 9.2 µM) | efflux ratio [1]: 0.8; recovery [5]: 21%; Papp A→B [8]: 8.16 ×10⁻⁶ cm/s; IC50 [11]: 1.47 µg/mL and 1.38 µg/mL; Papp B→A at 1 h, 3 µM [16]: 6.74 ×10⁻⁶ cm/s; recovery [18]: 42% |
| 5.22 | 1.16 (≈ 3.27 µM) | 0.4 |  | 6.3 (≈ 2.23 µg/mL) | 121 | 1.72 (≈ 4.85 µM) | 207 | 0.0667 | CCOc1ccc(-c2nc(CNC3C[C@@H]4C[C@H]([C@H]3C)C4(C)C)co2)cc1 (some centres undefined) | > 50 |  | 3.51 (≈ 9.9 µM) | IC50 [35]: 28.6 µg/mL (≈ 80.7 µM); half-life at 10 µM [36]: 2.9 h; IC50 [11]: 1.07 ug/ml [middle of 5 runs]; CLint in vitro [37]: 17 µL/min/mg |
